These results are taken from publication PMC3438169 (PLoS ONE, 2012).

The subject of assay [1] is efflux-defective yeast strain (BYΔ8). The experiment in a line: Yeast colony formation on ethanol/glycerol medium. It counts as cell-based, S. cerevisiae. The following applies: 0.1 µM argyrin B. How it is done:
Strain BYΔ8 was incubated in 2.5% ethylmethanesulfonate until only 50% of the cells formed colonies. […] Amplifying the mutated MEF1 gene and transforming it into non-mutagenized BYΔ8 cells validated identified mutations in MEF1.

For assay [2], the system named is recombinant human mEF-G1 L693Q. The experiment in a line: Biacore binding, human mEF-G1 L693Q. The note with it: 10, 20, 40 µM, HBS-P+ pH 7.4, 4% DMSO. An excerpt:
GFM1 encoding the active site of EF-G1 (residues 36–751) was PCR amplified from pDONR221 constructs using primers (GGGGACAAGTTTGTACAAAAAAGCAGGCTTAATGTCTTCATCAGGGGTGATT, GGGGACCACTTTGTACAAGAAAGCTGGGTATTAGTTCTTGGCTTTTCC). P. aeroginosa fusA1 encoding full-length EF-G was PCR amplified from pET28a-PaEFG-Nhis using primers (GGGGACCACTTTGTACAAGAAAGCTGGGTATTATCAACCTTGTTTTTT, GGGGACAAGTTTGTACAAAAAAGCAGGCTTAATGGCCCGTACTACACCC). Purified PCR products were cloned into the pDONR221 vector using Gateway cloning and BP Clonase II (Invitrogen), shuttled into an E.coli protein expression vector for N-terminal tagging (Avitag-His6 vector) using LR Clonase II (Invitrogen), and verified by sequencing. Avitag-His6-hEF-G1 and Avitag-His6-PaEF-G constructs were transformed into BL21-AI cells (Invitrogen) and isolated single colonies were used to inoculate 5 ml cultures which were grown overnight at 37°C with shaking. […]. Briefly, protein was captured on column using binding buffer (50 mM Tris; pH 7.5, 300 mM NaCl, 20 mM imidazole, 10% glycerol), washed extensively with washing buffer (50 mM Tris; pH 7.5, 500 mM NaCl, 30 mM imidazole, 10% glycerol), and then eluted with elution buffer (50 mM Tris; pH 7.5, 500 mM NaCl, 250 mM imidazole, 10% glycerol). […]

Assay [3] concerns cytochrome c oxidase subunit 2 (COX2). Briefly: Immunoblot of mitochondrial-encoded COX2 in HCT116 and RKO cells. It counts as cell-based, human. The note with it: 4 days. The method, then:
Whole cell lysates were prepared using RIPA buffer (Cell Signaling Technology) supplemented with EDTA-free protease inhibitor cocktail (Roche Applied Science), cleared by centrifugation at 16,000× g for 10 min, normalized based on protein concentration (Bio-Rad protein assay), boiled in NuPAGE LDS sample buffer (Invitrogen) supplemented with 2% ß-mercaptoethanol, and separated on NuPAGE 4–12% Bis-Tris gels using MOPS running buffer (Invitrogen). Proteins were transferred to nitrocellulose membranes and probed with the following primary antibodies: rabbit polyclonal antibody against mEF-G1 (Sigma, HPA034765), rabbit monoclonal antibody against GAPDH (Cell Signaling Technology, 14C10), mouse monoclonal antibodies against COX2 (Invitrogen, A6404) or SDHA (MitoSciences, MS204). Immobilized primary antibodies were visualized using HRP-conjugated anti-rabbit or anti-mouse IgG (Millipore, AP307P and AP308P) and enhanced chemiluminescence (Pierce).

Structures are written as SMILES. *1 amine or outer side, *2 acyl side, *3 side chain or, on linkers, in order; H or OH if unused. Where a SMILES comes first, the peptide text is derived from it. [ ]: non-standard residue; d: D form. dAla(ψthiazole) = C[C@@H](N[*:1])c1nc(C(=O)[*:2])cs1; Trp(4-OMe) = COc1cccc2[nH]cc(C[C@H](N)C(=O)O)c12; dAbu = CC[C@@H](N)C(=O)O; Dha = C=C(N)C(=O)O; Sar = CNCC(=O)O

Take `C=C1NC(=O)CN(C)C(=O)CNC(=O)[C@H](Cc2c[nH]c3cccc(OC)c23)NC(=O)[C@H](Cc2c[nH]c3ccccc23)NC(=O)c2csc(n2)[C@@H](C)NC(=O)[C@@H](CC)NC1=O` [argyrin B] (cyclo([dAbu][dAla(ψthiazole)]W[Trp(4-OMe)]G[Sar][Dha])): the “Colony formation (in words)” value in assay [1] was “abolished colony formation”. The “Binding to human mEF-G1 (in words)” value in assay [2] is given as “little binding detected”. Moreover, the “COX2 protein level (in words)” value is reported as “depleted” in assay [3] (HCT116, 1 µM argyrin B) and “depleted” in assay [3] (RKO, 1 µM argyrin B).
